# Measurements as given in ChEMBL document CHEMBL5678816, “A Next-Generation TRK Kinase Inhibitor Overcomes Acquired Resistance to Prior TRK Kinase Inhibition in Patients with TRK Fusion-Positive Solid Tumors” (Cancer Discov, 2017).
# Activity calls are given as the source filed them. The calls are words filed in the database; no cut-off is given here.
# Legend:
# [1] = Cmin in pediatric patient with recurrent ETV6-NTRK3-rearranged infantile fibrosarcoma at 20 mg administered twice a day as liquid formulation for 1 day and measured 12 hrs post dose by LC-MS/MS analysis; assay type: ADME; conditions: human, in vivo, read-out: Cmin
# [2] = target: Tyrosine-protein kinase JAK3 (Homo sapiens) (UniProt P52333); assay: Inhibition of JAK3 (unknown origin) at 1 uM in presence of ATP relative to control; values are per cent of control
# [3] = target: Serine/threonine-protein kinase ULK3 (Homo sapiens) (UniProt Q6PHR2); assay: Inhibition of ULK3 (unknown origin) at 1 uM in presence of ATP relative to control; values are per cent of control
# [4] = target: Protein kinase C iota type (Homo sapiens) (UniProt P41743); assay: Inhibition of PKCiota (unknown origin) at 1 uM in presence of ATP relative to control; values are per cent of control
# [5] = target: Serine/threonine-protein kinase TAO3 (Homo sapiens) (UniProt Q9H2K8); assay: Inhibition of TAO3 (unknown origin) at 1 uM in presence of ATP relative to control; values are per cent of control
# [6] = target: G protein-coupled receptor kinase 6 (Homo sapiens) (UniProt P43250); assay: Inhibition of GRK6 (unknown origin) at 1 uM in presence of ATP relative to control; values are per cent of control
# UMUC3 = assay: Inhibition of cell proliferation in human UMUC3 cells upto 10 umol/L incubated for 72 hrs by DAPI staining based analysis; assay type: functional; conditions: dose <= 10.0 µmol/L
# [7] = target: Ribosomal protein S6 kinase alpha-2 (Homo sapiens) (UniProt Q15349); assay: Inhibition of Rsk3 (unknown origin) at 1 uM in presence of ATP relative to control; values are per cent of control
# [8] = target: Serine/threonine-protein kinase NLK (Homo sapiens) (UniProt Q9UBE8); assay: Inhibition of NLK (unknown origin) at 1 uM in presence of ATP relative to control; values are per cent of control
# [9] = target: Ribosomal protein S6 kinase alpha-6 (Homo sapiens) (UniProt Q9UK32); assay: Inhibition of Rsk4 (unknown origin) at 1 uM in presence of ATP relative to control; values are per cent of control
# [10] = target: Calcium/calmodulin-dependent protein kinase type 1 (Homo sapiens) (UniProt Q14012); assay: Inhibition of CAMK1 (unknown origin) at 1 uM in presence of ATP relative to control; values are per cent of control
# [11] = target: Tyrosine-protein kinase BTK (Homo sapiens) (UniProt Q06187); assay: Inhibition of BTK (unknown origin) at 1 uM in presence of ATP relative to control; values are per cent of control
# [12] = target: Aurora kinase A (Homo sapiens) (UniProt O14965); assay: Inhibition of AURKA (unknown origin) at 1 uM in presence of ATP relative to control; values are per cent of control
# [13] = target: Serine/threonine-protein kinase 33 (Homo sapiens) (UniProt Q9BYT3); assay: Inhibition of STK33 (unknown origin) at 1 uM in presence of ATP relative to control; values are per cent of control
# [14] = target: Mitogen-activated protein kinase 3 (Homo sapiens) (UniProt P27361); assay: Inhibition of ERK1 (unknown origin) at 1 uM in presence of ATP relative to control; values are per cent of control
# [15] = target: Death-associated protein kinase 1 (Homo sapiens) (UniProt P53355); assay: Inhibition of DAPK1 (unknown origin) at 1 uM in presence of ATP relative to control; values are per cent of control
# [16] = target: Serine/threonine-protein kinase 4 (Homo sapiens) (UniProt Q13043); assay: Inhibition of MST1 (unknown origin) at 1 uM in presence of ATP relative to control; values are per cent of control
# [17] = target: Tyrosine-protein kinase Fer (Homo sapiens) (UniProt P16591); assay: Inhibition of Fer (unknown origin) at 1 uM in presence of ATP relative to control; values are per cent of control
# [18] = target: Dual specificity mitogen-activated protein kinase kinase 7 (Homo sapiens) (UniProt O14733); assay: Inhibition of MKK7 (unknown origin) at 1 uM in presence of ATP relative to control; values are per cent of control
# [19] = target: Muscle, skeletal receptor tyrosine-protein kinase (Homo sapiens) (UniProt O15146); assay: Inhibition of MUSK (unknown origin) at 1 uM in presence of ATP relative to control; values are per cent of control
# [20] = target: Tyrosine-protein kinase TXK (Homo sapiens) (UniProt P42681); assay: Inhibition of Txk (unknown origin) at 1 uM in presence of ATP relative to control
# [21] = target: Tyrosine-protein kinase ZAP-70 (Homo sapiens) (UniProt P43403); assay: Inhibition of ZAP-70 (unknown origin) at 1 uM in presence of ATP relative to control; values are per cent of control
# [22] = Clearance in mouse at 1 mg/kg, iv administered as 20% hydroxypropyl-beta-cyclodextrin formulation by LC-MS analysis; assay type: ADME, organism-based; conditions: in vivo
# [23] = target: [Pyruvate dehydrogenase (acetyl-transferring)] kinase isozyme 1, mitochondrial (Homo sapiens) (UniProt Q15118); assay: Inhibition of PDK1 (unknown origin) at 1 uM in presence of ATP relative to control; values are per cent of control
# [24] = target: Mitogen-activated protein kinase 10 (Homo sapiens) (UniProt P53779); assay: Inhibition of JNK3 (unknown origin) at 1 uM in presence of ATP relative to control; values are per cent of control
# [25] = target: Hepatocyte growth factor receptor (Homo sapiens) (UniProt P08581); assay: Inhibition of Met (unknown origin) at 1 uM in presence of ATP relative to control; values are per cent of control
# [26] = target: RAC-beta serine/threonine-protein kinase (Homo sapiens) (UniProt P31751); assay: Inhibition of AKT2 (unknown origin) at 1 uM in presence of ATP relative to control; values are per cent of control
# Sequence of Tyrosine-protein kinase JAK3 (Homo sapiens) (P52333 whole entry): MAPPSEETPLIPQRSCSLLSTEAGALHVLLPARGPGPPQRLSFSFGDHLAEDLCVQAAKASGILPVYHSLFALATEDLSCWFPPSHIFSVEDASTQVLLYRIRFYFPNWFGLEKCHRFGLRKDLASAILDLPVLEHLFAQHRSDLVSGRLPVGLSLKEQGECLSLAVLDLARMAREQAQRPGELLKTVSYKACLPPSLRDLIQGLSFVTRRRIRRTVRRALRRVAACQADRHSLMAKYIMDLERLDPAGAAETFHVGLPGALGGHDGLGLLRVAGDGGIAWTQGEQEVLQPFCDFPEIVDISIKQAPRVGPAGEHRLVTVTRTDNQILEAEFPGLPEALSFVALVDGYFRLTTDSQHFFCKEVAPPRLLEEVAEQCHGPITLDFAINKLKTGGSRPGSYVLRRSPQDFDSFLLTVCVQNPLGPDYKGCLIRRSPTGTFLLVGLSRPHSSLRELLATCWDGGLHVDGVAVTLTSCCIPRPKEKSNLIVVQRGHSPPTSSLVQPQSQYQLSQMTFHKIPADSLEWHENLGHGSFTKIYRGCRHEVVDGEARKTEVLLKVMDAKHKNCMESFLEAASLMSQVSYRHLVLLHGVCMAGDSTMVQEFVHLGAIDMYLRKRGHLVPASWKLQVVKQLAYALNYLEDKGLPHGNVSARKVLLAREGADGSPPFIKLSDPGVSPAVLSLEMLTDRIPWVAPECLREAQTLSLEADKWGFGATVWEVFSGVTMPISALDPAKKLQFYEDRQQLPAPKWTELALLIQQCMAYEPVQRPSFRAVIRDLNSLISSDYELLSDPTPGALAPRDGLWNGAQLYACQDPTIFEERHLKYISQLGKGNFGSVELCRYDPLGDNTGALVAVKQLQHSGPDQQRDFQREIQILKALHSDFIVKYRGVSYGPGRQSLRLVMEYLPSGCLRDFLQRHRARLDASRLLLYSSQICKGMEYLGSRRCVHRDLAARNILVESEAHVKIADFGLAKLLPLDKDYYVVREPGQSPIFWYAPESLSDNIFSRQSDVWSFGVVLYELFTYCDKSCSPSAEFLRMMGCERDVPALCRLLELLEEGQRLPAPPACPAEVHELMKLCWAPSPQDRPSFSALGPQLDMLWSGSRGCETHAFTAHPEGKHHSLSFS
# Sequence of Serine/threonine-protein kinase 33 (Homo sapiens) (Q9BYT3 whole entry, looked up): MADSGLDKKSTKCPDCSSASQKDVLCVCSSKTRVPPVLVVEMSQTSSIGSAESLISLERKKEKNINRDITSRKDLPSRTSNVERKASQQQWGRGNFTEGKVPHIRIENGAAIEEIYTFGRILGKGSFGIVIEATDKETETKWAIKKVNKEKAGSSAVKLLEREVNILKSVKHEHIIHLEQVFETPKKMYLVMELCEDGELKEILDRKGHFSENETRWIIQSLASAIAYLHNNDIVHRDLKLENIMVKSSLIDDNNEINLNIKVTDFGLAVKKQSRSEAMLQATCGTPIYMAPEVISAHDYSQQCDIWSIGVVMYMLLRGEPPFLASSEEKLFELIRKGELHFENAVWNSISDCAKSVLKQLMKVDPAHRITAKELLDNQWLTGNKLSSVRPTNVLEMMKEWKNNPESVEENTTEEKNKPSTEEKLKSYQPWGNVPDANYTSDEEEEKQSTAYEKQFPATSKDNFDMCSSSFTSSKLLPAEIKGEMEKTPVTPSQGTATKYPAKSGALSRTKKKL
# Sequence of Mitogen-activated protein kinase 10 (Homo sapiens) (P53779 whole entry): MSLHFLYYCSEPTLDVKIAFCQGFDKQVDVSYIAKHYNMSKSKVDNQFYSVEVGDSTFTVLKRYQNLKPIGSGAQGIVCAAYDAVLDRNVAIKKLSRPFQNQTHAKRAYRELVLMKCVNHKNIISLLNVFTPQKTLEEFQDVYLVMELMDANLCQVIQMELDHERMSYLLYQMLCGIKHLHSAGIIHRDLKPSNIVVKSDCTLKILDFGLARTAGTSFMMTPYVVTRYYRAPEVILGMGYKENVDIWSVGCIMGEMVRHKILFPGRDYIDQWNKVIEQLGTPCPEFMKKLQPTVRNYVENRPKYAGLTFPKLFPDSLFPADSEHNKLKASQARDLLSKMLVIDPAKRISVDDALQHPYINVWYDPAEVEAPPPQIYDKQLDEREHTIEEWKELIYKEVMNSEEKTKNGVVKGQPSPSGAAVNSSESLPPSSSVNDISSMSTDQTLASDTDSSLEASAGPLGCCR
# Sequence of Tyrosine-protein kinase TXK (Homo sapiens) (P42681 whole entry): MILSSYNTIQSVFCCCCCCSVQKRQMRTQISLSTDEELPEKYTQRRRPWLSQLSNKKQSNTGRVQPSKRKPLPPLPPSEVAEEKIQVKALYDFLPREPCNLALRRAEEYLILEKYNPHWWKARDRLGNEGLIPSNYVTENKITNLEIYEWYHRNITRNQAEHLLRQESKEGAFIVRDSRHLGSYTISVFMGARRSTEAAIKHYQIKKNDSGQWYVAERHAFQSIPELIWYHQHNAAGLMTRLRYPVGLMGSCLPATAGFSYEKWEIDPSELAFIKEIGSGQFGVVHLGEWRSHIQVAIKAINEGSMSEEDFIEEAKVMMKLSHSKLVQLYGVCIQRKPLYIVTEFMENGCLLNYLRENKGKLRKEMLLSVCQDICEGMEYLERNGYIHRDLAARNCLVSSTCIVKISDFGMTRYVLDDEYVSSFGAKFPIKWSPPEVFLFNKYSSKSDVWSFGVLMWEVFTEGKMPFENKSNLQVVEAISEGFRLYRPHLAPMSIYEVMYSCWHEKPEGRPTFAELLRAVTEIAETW
# Sequence of Protein kinase C iota type (Homo sapiens) (P41743 whole entry): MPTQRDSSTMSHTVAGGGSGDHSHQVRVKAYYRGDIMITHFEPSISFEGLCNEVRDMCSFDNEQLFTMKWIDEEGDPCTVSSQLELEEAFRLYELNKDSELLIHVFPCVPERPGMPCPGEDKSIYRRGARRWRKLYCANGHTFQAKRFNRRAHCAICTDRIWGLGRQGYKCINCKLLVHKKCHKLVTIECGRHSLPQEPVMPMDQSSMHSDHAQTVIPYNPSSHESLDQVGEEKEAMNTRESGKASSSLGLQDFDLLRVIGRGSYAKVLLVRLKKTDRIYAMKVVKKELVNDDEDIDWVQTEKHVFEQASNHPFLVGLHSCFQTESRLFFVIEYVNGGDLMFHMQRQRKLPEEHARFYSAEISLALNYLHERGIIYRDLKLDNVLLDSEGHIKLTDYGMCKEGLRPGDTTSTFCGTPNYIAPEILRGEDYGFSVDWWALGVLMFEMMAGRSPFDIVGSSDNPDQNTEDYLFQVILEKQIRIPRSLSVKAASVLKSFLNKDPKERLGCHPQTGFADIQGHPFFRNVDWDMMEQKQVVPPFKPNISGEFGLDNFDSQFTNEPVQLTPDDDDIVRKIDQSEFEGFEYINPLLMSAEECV
# Sequence of G protein-coupled receptor kinase 6 (Homo sapiens) (P43250 whole entry, looked up): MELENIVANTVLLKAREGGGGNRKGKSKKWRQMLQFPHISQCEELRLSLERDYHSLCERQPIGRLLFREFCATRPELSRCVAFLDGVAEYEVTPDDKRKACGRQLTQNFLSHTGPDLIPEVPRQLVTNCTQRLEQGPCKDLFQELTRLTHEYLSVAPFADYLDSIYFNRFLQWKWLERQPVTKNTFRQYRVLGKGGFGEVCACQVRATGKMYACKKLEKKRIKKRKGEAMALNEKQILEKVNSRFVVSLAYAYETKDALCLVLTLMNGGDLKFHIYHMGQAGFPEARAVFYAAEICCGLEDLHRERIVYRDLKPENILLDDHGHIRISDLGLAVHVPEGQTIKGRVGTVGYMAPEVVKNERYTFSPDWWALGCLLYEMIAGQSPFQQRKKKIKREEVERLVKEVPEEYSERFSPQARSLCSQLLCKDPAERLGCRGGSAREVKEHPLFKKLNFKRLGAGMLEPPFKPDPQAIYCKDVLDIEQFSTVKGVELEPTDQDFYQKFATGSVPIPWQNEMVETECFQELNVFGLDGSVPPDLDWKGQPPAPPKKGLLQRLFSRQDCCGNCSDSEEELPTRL
# Sequence of Tyrosine-protein kinase BTK (Homo sapiens) (Q06187 whole entry): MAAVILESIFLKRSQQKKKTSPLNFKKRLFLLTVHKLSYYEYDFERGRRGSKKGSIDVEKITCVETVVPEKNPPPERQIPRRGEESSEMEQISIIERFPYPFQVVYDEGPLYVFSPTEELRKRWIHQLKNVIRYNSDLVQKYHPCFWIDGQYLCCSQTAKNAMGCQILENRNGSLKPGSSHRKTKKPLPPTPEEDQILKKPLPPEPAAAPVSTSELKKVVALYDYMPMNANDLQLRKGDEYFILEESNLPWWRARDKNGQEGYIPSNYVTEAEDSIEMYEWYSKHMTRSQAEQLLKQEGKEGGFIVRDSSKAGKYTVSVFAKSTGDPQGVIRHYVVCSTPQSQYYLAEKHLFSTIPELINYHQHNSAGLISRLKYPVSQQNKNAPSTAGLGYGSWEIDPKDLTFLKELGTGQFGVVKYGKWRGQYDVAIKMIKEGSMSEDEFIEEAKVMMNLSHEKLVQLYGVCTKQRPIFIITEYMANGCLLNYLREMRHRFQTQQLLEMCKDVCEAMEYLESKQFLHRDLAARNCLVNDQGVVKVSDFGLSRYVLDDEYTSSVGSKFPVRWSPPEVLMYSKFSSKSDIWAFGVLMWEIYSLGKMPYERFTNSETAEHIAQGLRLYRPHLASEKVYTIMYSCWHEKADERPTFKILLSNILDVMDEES
# Sequence of Dual specificity mitogen-activated protein kinase kinase 7 (Homo sapiens) (O14733 whole entry): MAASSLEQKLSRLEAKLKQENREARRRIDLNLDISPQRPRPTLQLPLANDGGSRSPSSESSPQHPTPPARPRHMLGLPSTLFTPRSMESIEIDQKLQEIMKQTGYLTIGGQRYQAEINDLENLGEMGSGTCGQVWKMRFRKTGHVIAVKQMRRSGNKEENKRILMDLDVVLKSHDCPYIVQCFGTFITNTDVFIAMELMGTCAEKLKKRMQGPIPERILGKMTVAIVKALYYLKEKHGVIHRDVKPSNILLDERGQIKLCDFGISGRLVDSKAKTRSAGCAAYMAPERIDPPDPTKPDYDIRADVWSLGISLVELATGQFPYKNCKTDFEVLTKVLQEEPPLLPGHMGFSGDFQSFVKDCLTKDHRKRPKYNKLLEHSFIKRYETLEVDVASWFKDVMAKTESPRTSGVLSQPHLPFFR
compound,measurement,setting,value
C[C@@H]1CCc2ncc(F)cc2[C@H]2CCCN2c2ccn3ncc(c3n2)C(=O)N1 [SELITRECTINIB],concentration at 36 h,[1],< 1 ng/mL
same,residual activity,[2],103%
same,residual activity,[3],95.5%
same,residual activity,[4],100%
same,residual activity,[5],102%
same,residual activity,[6],106%
same,inhibition,UMUC3,inactive
same,residual activity,[7],106%
same,residual activity,[8],110%
same,residual activity,[9],127%
same,residual activity,[10],107%
same,residual activity,[11],87%
same,residual activity,[12],97%
same,residual activity,[13],106%
same,residual activity,[14],111%
same,residual activity,[15],120%
same,residual activity,[16],95.5%
same,residual activity,[17],91%
same,residual activity,[18],115%
same,residual activity,[19],89.5%
same,inhibition,[20],14%
same,residual activity,[21],118%
same,clearance,[22],4.83 mL/min/kg
same,residual activity,[23],101%
same,residual activity,[24],109%
same,residual activity,[25],109%
same,residual activity,[26],121%
